Laboratory results published in patent US4959368A, “Therapeutic agent for neurological diseases” (Mitsui Petrochemical Industries Ltd., priority 1986, dated 1990).
Read-outs that look alike come from different tables or passages of the source.

Assays:
[1] = tested on: mouse neuroblastoma cell line neuro-2a; experiment: Activity on neuro-2a, cells with outgrown neurites; format: cell-based
In short: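 Mouse neuro-2a cells in DMEM with FCS exposed to compounds for 24 h (up to 6 concentrations, triplicate runs), glutaraldehyde-fixed and methylene blue-stained. Proportion of cells bearing a neurite at least twice the cell's long diameter counted microscopically over ≥200 cells.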

Acute toxicity, mouse = format: in vivo; conditions: in vivo, po, read-out: Presumed LD50
Method: (§1) The acute toxicity of the compounds of the invention was examined by the following method.
(§2) Male ddy-strain 5-week old mice and male Wistar-strain 8 week old rats, five per group, were used as experimental animals. Each of the compounds was dissolved in saline and administered perorally, and the toxicity of the compound was assessed 24 hours after the administration.

mice = experiment: Acute toxicity, mouse; format: in vivo; conditions: 24 hours
Method: as §1, §2

[2] = tested on: rats with crushed sciatic nerves; experiment: Curative effect on rats with crushed sciatic nerves; format: in vivo, rat (male Wistar)
Method: Curative effect on rats with crushed sciatic nerves:
The curing effect of the compound (I) of the invention was tested on rats having crushed scietic nerves as a model of peripheral nervous disorder using (1) a change in the action of the hind paw with the crushed sciatic nerves and (2) a change in the weight of the muscle as an index of the course of degeneration and regeneartion of peripheral nerves.
In the experiment, male Wistar rats (6 weeks old), seven per group, were used. The sciatic nerves were crushed by a method similar to the method of Yamatsu et al. (see Kiyomi Yamatsu, Takenori Kaneko, Akifumi Kitahara and Isao Ohkawa, Journal of Japanese Pharmacological Society, 72, 259-268 (1976) and the method of Hasegawa et al. (see Kazuo Hasegawa, Naoji Mikuni and Yutaka Sakai, Journal of Japanese Pharmacological Society, 74, 721-734 (1978). Specifically, under anesthesia with pentobarbital (40 mg/kg, i.p.), the left side sciatic nerve was exposed at the femur and that site of the exposed scietic nerve which was 5 mm to the center from the branched part between the N. tibialis and the N. suralis was crushed using a modified artery, klomme, having a width of 2 mm and a gap of 0.1 mm. After the operation, the rats were assigned to the test groups at random.
Compound No. 408 was selected as the compound (I) of the invention and intraperitoneally administered to the rats once a day from the day of operation to the 22nd day. A group to which mecobalamin (made by Gedeon Richter Ltd.) was administered and a group to which 0.9% saline was administered were used as controls. The following items were measured with the lapse of time (on the 1st, 4th, 7th, 10th, 14th, 17th, 21st, and 23rd days after the crushing of the scietic nerves).
(1) Change in the action of the side of the hind paw with the crushed scietic nerve:
By a method similar to the method of Hasegawa [Hasegawa, K., Experientia, 34, 750-751 (1978)], the distance between the first and fifth digits of the hind paw was measured.
The ratio of the measured distance to the normal distance was calculated and expressed in percentage (%).
(2) Change in the weight of muscle
It is known that removal of a nerve or its disorder causes atrophy of the muscle which is under its control, and the atrophy is gradually cured by re-control by the nerve. For this reason, a change in the weight of the muscle, which is quantitative, was selected as an index. Twenty-three days after the operation, the soleus muscles of both sides of paws were extracted under anesthesia with pentobarbital, and their weights were measured. The ratio of the weight of the soleus muscle on the crushed side to that of normal side was calculated and expressed in percentage (%).

[3] = Table 3 Run No. 2, 0.1 mM, control 1.9 ± 0.9
[4] = Table 3 Run No. 4, 0.1 mM, control 3.1 ± 0.2
[5] = Table 3 Run No. 4, 0.5 mM, control 3.1 ± 0.2
[6] = Table 3 second Run No. 5, 0.3 mM, control 4.5 ± 0.3
[7] = Table 3 second Run No. 5, 0.5 mM, control 4.5 ± 0.3

With `CCOC(=O)c1cnc(N2CCNCC2)nc1N` [Compound 120] the “Cells having neurites with a length at least twice the long diameter of cell/total number of cells” value [1, 3] was 10.2 ± 3.7%, the “Cells having neurites with a length at least twice the long diameter of cell/total number of cells” value ([1]; Table 3 Run No. 10, 0.003 mM, control 1.7 ± 0.7) was 2.6 ± 0.6% and the “Cells having neurites with a length at least twice the long diameter of cell/total number of cells” value ([1]; Table 3 Run No. 10, 0.1 mM, control 1.7 ± 0.7) was 6.5 ± 1.7%. The LD50 at 24 h (Acute toxicity, mouse; Table 6, p.o.) was 550 to 1000 mg/kg, the “Number of dead animals/number of test animals” value (mice; Table 6, 300 mg/kg p.o.) was 0/5 and the “Number of dead animals/number of test animals” value (mice; Table 6, 500 mg/kg p.o.) was 1/5. The “Number of dead animals/number of test animals” value (mice; Table 6, 1000 mg/kg p.o.) was 4/5.
With `CCCCOc1ccnc(N2CCNCC2)n1` [Compound 128] the “Cells having neurites with a length at least twice the long diameter of cell/total number of cells” value ([1]; Table 3 Run No. 1, 0.028 μM, control 2.2 ± 0.8) was 4.4 ± 0.7%, the “Cells having neurites with a length at least twice the long diameter of cell/total number of cells” value ([1]; Table 3 Run No. 1, 0.29 μM, control 2.2 ± 0.8) was 3.4 ± 0.6% and the “Cells having neurites with a length at least twice the long diameter of cell/total number of cells” value ([1]; Table 3 Run No. 1, 28 μM, control 2.2 ± 0.8) was 5.2 ± 0.9%. For the same compound, the LD50 at 24 h (Acute toxicity, mouse; Table 6, p.o.) was 300 to 550 mg/kg, the “Number of dead animals/number of test animals” value (mice; Table 6, 300 mg/kg p.o.) was 0/5 and the “Number of dead animals/number of test animals” value (mice; Table 6, 500 mg/kg p.o.) was 3/5. For the same compound, the “Number of dead animals/number of test animals” value (mice; Table 6, 1000 mg/kg p.o.) was 4/5.
In the case of `CCOC(=O)c1cnc(N2CCNCC2)nc1C(=O)OCC` [Compound 144], the “Cells having neurites with a length at least twice the long diameter of cell/total number of cells” value [1, 3] is reported as 9.9 ± 1.5%, the “Cells having neurites with a length at least twice the long diameter of cell/total number of cells” value ([1]; Table 3 Run No. 2, 0.3 mM, control 1.9 ± 0.9) is reported as 19.4 ± 3.2% and the LD50 at 24 h (Acute toxicity, mouse; Table 6, p.o.) is reported as 550 to 1000 mg/kg. For the same compound, the “Number of dead animals/number of test animals” value (mice; Table 6, 300 mg/kg p.o.) was 0/5, the “Number of dead animals/number of test animals” value (mice; Table 6, 500 mg/kg p.o.) was 0/5 and the “Number of dead animals/number of test animals” value (mice; Table 6, 1000 mg/kg p.o.) was 3/5.
With `CN1C(=O)Cc2cnc(N3CCNCC3)nc21` [Compound 406] the “Cells having neurites with a length at least twice the long diameter of cell/total number of cells” value [1, 4] was 16.2 ± 3.7%, the “Cells having neurites with a length at least twice the long diameter of cell/total number of cells” value ([1]; Table 3 Run No. 4, 0.3 mM, control 3.1 ± 0.2) was 29.9 ± 2.6% and the “Cells having neurites with a length at least twice the long diameter of cell/total number of cells” value [1, 5] was 44.8 ± 0.8%. For the same compound, the “Cells having neurites with a length at least twice the long diameter of cell/total number of cells” value ([1]; Table 3 Run No. 7, 0.1 mM, control 2.5 ± 0.7) was 10.3 ± 1.6%, the “Cells having neurites with a length at least twice the long diameter of cell/total number of cells” value ([1]; Table 3 Run No. 7, 0.3 mM, control 2.5 ± 0.7) was 22.6 ± 2.2% and the “Cells having neurites with a length at least twice the long diameter of cell/total number of cells” value ([1]; Table 3 Run No. 7, 0.5 mM, control 2.5 ± 0.7) was 40.2 ± 3.4%. The “Cells having neurites with a length at least twice the long diameter of cell/total number of cells” value ([1]; Table 3 second Run No. 5, 0.03 mM, control 4.5 ± 0.3) was 7.6 ± 1.8%, the “Cells having neurites with a length at least twice the long diameter of cell/total number of cells” value [1, 6] was 18.4 ± 3.0% and the “Cells having neurites with a length at least twice the long diameter of cell/total number of cells” value [1, 7] was 32.4 ± 4.3%. For the same compound, the LD50 at 24 h (Acute toxicity, mouse; Table 7, p.o.) was greater than 1000 mg/kg and the “Number of dead animals/number of test animals” value (mice; Table 7, 1000 mg/kg p.o., 1000 mg/kg) was 1/5.
With `O=C1Cc2cnc(N3CCNCC3)nc2N1` [Compound 424] the “Cells having neurites with a length at least twice the long diameter of cell/total number of cells” value ([1]; Table 3 first Run No. 5, 0.5 mM, no control given) was 12.6 ± 1.1%, the “Cells having neurites with a length at least twice the long diameter of cell/total number of cells” value ([1]; Table 3 first Run No. 5, 1 mM, no control given) was 27.1 ± 2.1% and the LD50 at 24 h (Acute toxicity, mouse; Table 7, p.o.) was greater than 1000 mg/kg. For the same compound, the “Number of dead animals/number of test animals” value (mice; Table 7, 1000 mg/kg p.o.) was 0/5.
With `COCCN1C(=O)Cc2cnc(N3CCNCC3)nc21` [Compound 428] the “Cells having neurites with a length at least twice the long diameter of cell/total number of cells” value ([1]; Table 3 Run No. 3, 0.03 mM, control 3.9 ± 0.3) was 6.7 ± 1.5%, the “Cells having neurites with a length at least twice the long diameter of cell/total number of cells” value ([1]; Table 3 Run No. 3, 0.3 mM, control 3.9 ± 0.3) was 17.3 ± 0.8% and the “Cells having neurites with a length at least twice the long diameter of cell/total number of cells” value ([1]; Table 3 Run No. 3, 1 mM, control 3.9 ± 0.3) was 30.1 ± 2.4%. For the same compound, the “Cells having neurites with a length at least twice the long diameter of cell/total number of cells” value [1, 4] was 13.7 ± 2.1%, the “Cells having neurites with a length at least twice the long diameter of cell/total number of cells” value [1, 5] was 27.2 ± 3.1% and the “Cells having neurites with a length at least twice the long diameter of cell/total number of cells” value ([1]; Table 3 Run No. 4, 1 mM, control 3.1 ± 0.2) was 29.1 ± 2.4%. For the same compound, the “Cells having neurites with a length at least twice the long diameter of cell/total number of cells” value [1, 6] was 9.8 ± 2.3%, the “Cells having neurites with a length at least twice the long diameter of cell/total number of cells” value [1, 7] was 14.1 ± 1.5% and the “Cells having neurites with a length at least twice the long diameter of cell/total number of cells” value ([1]; Table 3 second Run No. 5, 1 mM, control 4.5 ± 0.3) was 15.6 ± 1.0%. For the same compound, the LD50 at 24 h (Acute toxicity, mouse; Table 7, p.o.) was greater than 1000 mg/kg and the “Number of dead animals/number of test animals” value (mice; Table 7, 1000 mg/kg p.o.) was 0/5.
In the case of `Cc1nc(N2CCNCC2)nc2c1CC(=O)N2C` [Compound 468], the “Cells having neurites with a length at least twice the long diameter of cell/total number of cells” value ([1]; Table 3 Run No. 10, 0.3 mM, control 1.7 ± 0.7) is reported as 5.8 ± 0.8%, the “Cells having neurites with a length at least twice the long diameter of cell/total number of cells” value ([1]; Table 3 Run No. 10, 1 mM, control 1.7 ± 0.7) is reported as 15.7 ± 0.5% and the LD50 at 24 h (Acute toxicity, mouse; Table 7, p.o.) is reported as greater than 1000 mg/kg. For the same compound, the “Number of dead animals/number of test animals” value (mice; Table 7, 1000 mg/kg p.o.) was 1/5.
In the case of `CC(C)n1ccc2nc(N3CCNCC3)ncc2c1=O` [Compound 713], the LD50 at 24 h (Acute toxicity, mouse; Table 6, p.o.) is reported as greater than 1000 mg/kg, the “Number of dead animals/number of test animals” value (mice; Table 6, 300 mg/kg p.o.) is reported as 0/5 and the “Number of dead animals/number of test animals” value (mice; Table 6, 500 mg/kg p.o.) is reported as 0/5. For the same compound, the “Number of dead animals/number of test animals” value (mice; Table 6, 1000 mg/kg p.o.) was 2/5.
In the case of `CCCn1ccc2nc(N3CCNCC3)ncc2c1=O` [Compound 715], the LD50 at 24 h (Acute toxicity, mouse; Table 6, p.o.) is reported as 550 to 1000 mg/kg, the “Number of dead animals/number of test animals” value (mice; Table 6, 300 mg/kg p.o.) is reported as 0/5 and the “Number of dead animals/number of test animals” value (mice; Table 6, 500 mg/kg p.o.) is reported as 0/5. For the same compound, the “Number of dead animals/number of test animals” value (mice; Table 6, 1000 mg/kg p.o.) was 4/5.
For `CCn1cc(C=O)c2nc(N3CCNCC3)ncc2c1=O` [Compound 744], the LD50 at 24 h (Acute toxicity, mouse; Table 6, p.o.) was 550 to 1000 mg/kg, the “Number of dead animals/number of test animals” value (mice; Table 6, 500 mg/kg p.o.) was 0/5 and the “Number of dead animals/number of test animals” value (mice; Table 6, 1000 mg/kg p.o.) was 3/5.
With `C/C1=C2/[N-][C@H]([C@H](CC(N)=O)[C@@]2(C)CCC(=O)NC[C@@H](C)OP(=O)([O-])O[C@H]2[C@@H](O)[C@@H](n3cnc4cc(C)c(C)cc43)O[C@@H]2CO)[C@]2(C)N=C(/C(C)=C3N=C(/C=C4N=C1[C@@H](CCC(N)=O)C\4(C)C)[C@@H](CCC(N)=O)[C@]\3(C)CC(N)=O)[C@@H](CCC(N)=O)[C@]2(C)CC(N)=O.[CH3-].[Co+3]` [Mecobalamin, mecobalamin, reference compound] the “Rate of recovery of the interdigit distance” value ([2]; 21st day, 0.5 mg/kg ip, saline 62.0 ± 2.4, ***P < 0.001) was 79.1 ± 2.6%, the “Rate of recovery of the interdigit distance” value ([2]; 23rd day, 0.5 mg/kg ip, saline 71.1 ± 3.4, **P < 0.01) was 88.3 ± 4.0% and the “interdigit distance, recovery versus saline” value ([2]; in words, 21st day) was “apparent tendency to quicker recovery”. The “Rate of recovery in muscle weight” value ([2]; soleus muscle, 23rd day, 0.5 mg/kg ip, saline 51.8 ± 1.2) was 55.0 ± 3.5%.
